The record followed here is patent publication US20240400606A1, “SMALL MOLECULE ACTIVATORS OF THE IMMUNE SYSTEM” (THE BOARD OF TRUSTEES OF THE UNIVERSITY OF ILLINOIS, priority 2021, published 2024).

The target in one series is SULT2B1b (Homo sapiens (Human), UniProt O00204). The experiment in a line: LC-MS/MS based in vitro assay (DHEA-sulfate formation). In kind it is biochemical. The note with it: 100 μM compound, 2 hours; mean±s.e.m., n=3. As to the method:
LC-MS/MS Based In Vitro Assay. Stock solutions of DHEA (5 mM in DMSO) and compound of interest (5 mM in DMSO) were prepared. […] SULT2B1b was diluted to 1.5 μg/μL in protein storage buffer then down to 0.8 μg/μL in 1× activity assay buffer. 30 μL of 0.8 μg/μL SULT2B1b was added to each reaction. Reactions were incubated for 2 hours at 37° C. with shaking at 250 rpm. To quench, 30 μL reaction mix was added to 30 μL ice cold 0.5% HCl in MeCN, then centrifuged at 13,000 xg at room temperature for 3 min. 50 μL supernatant was transferred to an empty Eppendorf tube and submitted for LC-MS/MS quantification (UIUC Metabolomics Center), along with 5 mM DHEA sulfate standard. Controls: Reaction mix made with DHEA and DMSO in place of compound of interest (DHEA control). […] General LC-MS/MS Quantification Method. Both DHEAS and CS samples were analyzed by 6500 QTRAP (Sciex, Redwood City, CA) liquid chromatography-tandem mass spectrometry. […] The flow rate was 0.3 mL/min. […] The source temperature was 400° C. […] Cholesterol-sulfate and DHEA-sulfate were detected by multiple reaction monitoring (MRM) at m/z 465→97.0 and 367.0→97.0 respectively. Software Analyst 1.7.1 ([…]) was used for data acquisition and analysis.

The test system of series [1] is whole cell CS levels in MCF-7. As to the kind of experiment: Whole cell cholesterol sulfate quantification, MCF-7. It is filed as cell-based, human. The following applies: for whole cell CS levels vs DMSO: MCF-7, 6.25 μM compound, 72 hours. As to the method: (§1) General Whole Cell Cholesterol Sulfate Quantification. 60×15 mm tissue culture dishes were seeded with MCF-7 at 2×10^6 cells/dish or T47D at 1×10^6 cells per dish, 5 mL total media volume, and allowed to adhere overnight. Compounds of interest were dissolved in DMSO. Cells were treated with 25 μL 1.25 mM compound of interest stock (6.25 μM final compound concentration, 0.5% final DMSO concentration) or DMSO for 72 hours. To harvest, media was aspirated, and cells were washed once with PBS before detaching with trypsin. Trypsin was quenched with media. Cells were centrifuged at 300 xg for 3 minutes and supernatant was discarded. Cells were resuspended in media and counted using a Countess 3 automated cell counter (Thermo Fisher Scientific). 1.5×10^6 cells were collected, washed twice with 1 mL PBS, then pelleted and stored at −80° C. until lysis. Cell pellets were resuspended in 200 μL cold 70:30 methanol:water and placed on ice. Cell suspension was sonicated on ice (30%, 10 s on, 20 s off, 1 min total) and continued to be incubated on ice for 30 minutes. Lysate was clarified by centrifugation at 14,100 xg at 4° C. for 30 minutes. 100 μL of supernatant was transferred to an empty Eppendorf tube and submitted for LC-MS/MS quantification (UIUC Metabolomics Center), along with 5 mM cholesterol sulfate sodium salt standard.
as §1, with “Time Course Whole Cell” for “General Whole Cell”, “2×10^6 cells/dish per dish,” for “2×10^6 cells/dish or T47D at 1×10^6 cells per dish,”, “DMSO for 0 (harvested immediately), 4, 8, 24, 48, or 72 hours.” for “DMSO for 72 hours.”
Whole Cell Cholesterol Sulfate Quantification with Compound Removal. 60×15 mm tissue culture dishes were seeded with MCF-7 at 2×10^6 cells/dish, 5 mL total media volume, and allowed to adhere overnight. Compounds of interest were dissolved in DMSO. Cells were treated with 25 μL 1.25 mM compound of interest stock (6.25 μM final compound concentration, 0.5% final DMSO concentration) for 0 hours (harvested immediately) or 24 hours. Media was aspirated and replaced with 5 mL fresh media, then cells were either harvested (24 hour time point) or further incubated. To harvest, media was aspirated, and cells were washed once with PBS before detaching with trypsin. Trypsin was quenched with media. Cells were centrifuged at 300 xg for 3 minutes and supernatant was discarded. Cells were resuspended in media and counted using a Countess 3 automated cell counter (Thermo Fisher Scientific). 1.5×10^6 cells were collected, washed twice with 1 mL PBS, then pelleted and stored at −80° C. until lysis. Cell pellets were resuspended in 200 μL cold 70:30 methanol:water and placed on ice. Cell suspension was sonicated on ice (30%, 10 s on, 20 s off, 1 min total) and continued to be incubated on ice for 30 minutes. Lysate was clarified by centrifugation at 14,100 xg at 4° C. for 30 minutes. […]

For the next series, the system named is MCF-7 cells. The experiment in a line: Alamar blue cellular cytotoxicity, MCF-7. It is filed as cell-based. The note with it: MCF-7, 72 hours. The method, then:
Alamar Blue Fluorescence for Cellular Activity (IC50). Cells were seeded per well in a 96-well plate (5000 for MCF-7, 4000 for T47D, 7000 for mouse embryonic fibroblasts) and allowed to adhere before DMSO solutions of compounds were added to each well. Final concentration of DMSO in each well is 1%, final volume: 100 μL. At the end of 72 hours, Alamar Blue solution was added (10 μL of 1 mg resazurin per 10 mL PBS). After 2-4 hours incubation, fluorescence (λexcit.=555 nm, λemission.=585 nm) was measured. The fluorescence of each well was read with a SpectraMax M3 plate reader (Molecular Devices). Percent dead was determined by comparison to a 100% dead control: 100 μM Raptinal treated cells.
Whole cell cytotoxicity-MCF-7. Cell cytotoxicity was assessed to ensure compound concentrations used the whole cell assays would not kill the cells. Alamar blue cell cytotoxicity assay: 5000 cells were seeded per well in a 96-well plate and allowed to adhere before DMSO solutions of compounds were added to each well. Final concentration of DMSO in each well is 1%, with a final volume of 100 μl. […] After 2 to 4 hours of incubation, fluorescence (λexcitation=555 nm, λemission=585 nm) was measured. Percent dead was determined by comparison to a 100% dead control: 100 μM Raptinal-treated cells (FIG. 6).

“Also recorded” adds a separate entry of the source.

Chain of SULT2B1b (O00204 whole entry): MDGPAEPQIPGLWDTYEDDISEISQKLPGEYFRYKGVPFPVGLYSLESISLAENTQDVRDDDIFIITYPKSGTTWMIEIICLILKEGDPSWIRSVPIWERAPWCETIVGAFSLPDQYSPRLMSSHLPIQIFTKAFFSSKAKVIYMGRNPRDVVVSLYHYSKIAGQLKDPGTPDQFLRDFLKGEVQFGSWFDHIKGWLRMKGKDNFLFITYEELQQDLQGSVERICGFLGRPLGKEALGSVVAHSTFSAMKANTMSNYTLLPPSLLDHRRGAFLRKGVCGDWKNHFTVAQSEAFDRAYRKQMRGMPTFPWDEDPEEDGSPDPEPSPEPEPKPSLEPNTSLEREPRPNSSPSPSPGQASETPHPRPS

Broadly, the inhibition is the drop in the measured response relative to a control, in per cent. For the compound `C[C@]12CC[C@H](O)CC1=CC[C@@H]1[C@@H]2CC[C@]2(C)C(n3cnc4ccccc43)=CC[C@@H]12` [Compound 2, Galeterone, reference compound], the inhibition at 100 µM on SULT2B1b is 57 ± 0.7%. Moreover, the “whole cell CS levels vs DMSO” value in series [1] is given as “did decrease CS levels”.
At SULT2B1b, `C[C@]12CCC(=O)N(Cc3ccc(Br)cc3)C1=CC[C@@H]1[C@@H]2C(=O)C[C@]2(C)C(=O)CC[C@@H]12` [Compound 3, (4aR,4bS,6aS,9aS,9bS)-1-(4-bromobenzyl)-4a,6a-dimethyl-3,4,4a,6,6a,8,9,9a,9b,10-decahydro-1H-indeno[5,4-f]quinoline-2,5,7(4bH)-trione] showed an inhibition at 100 µM of 72.8 ± 0.1%. Moreover, in the series with MCF-7 cells, the “suitable sub-lethal treatment concentration” value worked out at 6.25 µM. The “whole cell CS levels vs DMSO” value in series [1] is reported as “significant decrease”; in series [1] (listed as 2-273), “significantly decrease; also recorded: significant (p=0.0003) reduction”. Also, in series [1] (MCF-7, 6.25 μM for 24 hours, then compound-free media up to 48 hours), the “CS level rebound after compound removal” value was “did not rebound”. For the same compound, the “time of constant treatment to significantly decreased whole cell CS levels” value in series [1] (MCF-7, 6.25 μM, time course) was no more than 24 h. The “treatment concentration showing a decrease in CS levels (whole cell dose response)” value in series [1] (MCF-7, 72 hour treatment) was no more than 0.097 µM.
`C[C@]12CCC(=O)N(Cc3ccc(Cl)cc3)C1=CC[C@@H]1[C@@H]2C(=O)C[C@]2(C)C(=O)CC[C@@H]12` [Compound 1, (4aR,4bS,6aS,9aS,9bS)-1-(4-chlorobenzyl)-4a,6a-dimethyl-3,4,4a,6,6a,8,9,9a,9b,10-decahydro-1H-indeno[5,4-f]quinoline-2,5,7(4bH)-trione] yielded an inhibition at 100 µM at SULT2B1b of 67.8 ± 0.5%. Moreover, the “suitable sub-lethal treatment concentration” value with MCF-7 cells came to 6.25 µM. Further, in series [1], the “whole cell CS levels vs DMSO” value was “significantly decrease”.
